Drawing on patent US12139520B2 (priority 2020, dated 2024), this text covers EC50 for six molecules.

Numbered stars: 1 amine (or outer) side, 2 acyl side, 3 side chain; on linkers, the order of the positions; unused ones are H or OH. Bridge positions count the residues as written; N and C are the ends. Square brackets hold non-standard residues; d marks the D form. Peptide text beside a SMILES is read from it. * marks the point of attachment. C20 diacid = O=C(O)CCCCCCCCCCCCCCCCCCC(=O)*; γGlu = O=C(O)[C@H](CCC(=O)[*:2])N[*:1]; Hyp = O=C(O)[C@@H]1C[C@@H](O)CN1

The experiment has as its target T1, hAMY3 receptor (Homo sapiens, UniProt O60896+P30988).
T1 sequence (P30988 25-474): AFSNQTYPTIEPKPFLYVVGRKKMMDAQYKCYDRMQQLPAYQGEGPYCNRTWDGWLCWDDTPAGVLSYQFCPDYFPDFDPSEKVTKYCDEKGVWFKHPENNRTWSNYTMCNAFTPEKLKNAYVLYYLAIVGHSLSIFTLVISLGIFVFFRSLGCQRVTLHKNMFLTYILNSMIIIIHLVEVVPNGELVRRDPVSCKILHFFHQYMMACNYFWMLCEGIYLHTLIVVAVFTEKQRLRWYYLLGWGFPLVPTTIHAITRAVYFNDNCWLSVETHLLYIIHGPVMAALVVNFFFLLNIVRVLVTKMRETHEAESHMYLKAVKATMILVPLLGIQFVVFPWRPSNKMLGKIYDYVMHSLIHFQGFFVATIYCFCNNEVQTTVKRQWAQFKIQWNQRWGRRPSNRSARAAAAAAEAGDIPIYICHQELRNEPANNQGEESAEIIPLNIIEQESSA
T1 sequence (O60896 24-148 partner): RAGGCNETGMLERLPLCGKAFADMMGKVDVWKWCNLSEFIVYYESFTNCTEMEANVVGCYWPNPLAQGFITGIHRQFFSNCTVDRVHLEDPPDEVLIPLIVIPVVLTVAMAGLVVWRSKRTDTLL
Nature of the experiment: cAMP assay for in vitro receptor activation, hAMY3-R. The experiment is classed as cell-based. As to conditions: cAMP assay, hAMY3 receptor; read-out: hAMY3R EC50. The procedure: General Protocols for cAMP Assays for Measuring In Vitro Receptor Activation
Cells stably overexpressing the hAMY3 receptor were obtained from Ogeda (now Astellas Pharma), sub-cloned and a monoclonal cell-line with an appropriate assay-window was expanded, aliquoted and frozen.
An aliquot was thawed and plated in DPBS with 0.05% casein and 0.5 mM IBMX as 2000 cells/well in a 384-well format. The cells were then immediately stimulated for 30 min at room temperature with graded doses of test compound using human amylin (Bachem, cat no. H-7905) as a positive control. cAMP accumulation was measured using a Cisbio assay for Gs coupled receptors (cat. no. 62AM4PEC), where the assay reagents were added as per the manufacturer's instructions and time-resolved fluorescence energy transfer recorded after one hour.
Background: cAMP levels reflect the balance of adenylyl cyclase and phosphodiesterase activity.
What is called EC50 is the concentration at which the effect is half-maximal. As for `CC[C@H](C)[C@H](NC(=O)[C@H](CCC(N)=O)NC(=O)[C@H](Cc1c[nH]cn1)NC(=O)[C@H](C)NC(=O)[C@H](CC(C)C)NC(=O)[C@H](CCCNC(=N)N)NC(=O)[C@H](CCC(N)=O)NC(=O)[C@@H](NC(=O)[C@@H](NC(=O)[C@@H]1CSSC[C@H](NC(=O)[C@@H](N)CCCCN)C(=O)N[C@@H](CC(N)=O)C(=O)N[C@@H](Cc2ccccc2)C(=O)N[C@@H](C)C(=O)N[C@@H]([C@@H](C)O)C(=O)N1)[C@@H](C)O)C(C)C)C(=O)N[C@@H](Cc1ccc(O)cc1)C(=O)N[C@@H](CCC(N)=O)C(=O)N[C@@H](Cc1ccccc1)C(=O)N[C@H](C(=O)N[C@@H](CC(=O)O)C(=O)N[C@@H](CCCCN)C(=O)N[C@@H](CC(=O)O)C(=O)N[C@@H](CCCCN)C(=O)N[C@@H](CC(=O)O)C(=O)N[C@@H](CC(N)=O)C(=O)N[C@H](C(=O)N[C@@H](C)C(=O)N1CCC[C@H]1C(=O)N1CCC[C@H]1C(=O)N[C@H](C(=O)N[C@@H](CCC(=O)O)C(=O)N[C@H](C(=O)NCC(=O)N[C@@H](CO)C(=O)N[C@@H](CC(N)=O)C(=O)NCC(=O)N1CCC[C@H]1C(N)=O)C(C)C)[C@@H](C)O)C(C)C)[C@@H](C)O` [compound 18] (H-KCNFATCTVQRLAHQIYQFTDKDKDNVAPPTEVGSNGP-NH2; disulfide 2-7), the EC50 came to 0.008 nM.

Regarding `CC[C@H](C)[C@H](NC(=O)[C@H](CCC(N)=O)NC(=O)[C@H](Cc1c[nH]cn1)NC(=O)[C@H](C)NC(=O)[C@H](CC(C)C)NC(=O)[C@H](CCCNC(=N)N)NC(=O)[C@H](CCC(N)=O)NC(=O)[C@@H](NC(=O)[C@@H](NC(=O)[C@@H]1CSSC[C@H](NC(=O)[C@@H](N)CCCCN)C(=O)N[C@@H](CC(N)=O)C(=O)N[C@@H]([C@@H](C)O)C(=O)N[C@@H](C)C(=O)N[C@@H]([C@@H](C)O)C(=O)N1)[C@@H](C)O)C(C)C)C(=O)N[C@@H](Cc1ccc(O)cc1)C(=O)N[C@@H](CCC(N)=O)C(=O)N[C@@H](Cc1ccccc1)C(=O)N[C@H](C(=O)N[C@@H](CC(=O)O)C(=O)N[C@@H](CCCCN)C(=O)N[C@@H](CC(=O)O)C(=O)N[C@@H](CCCCN)C(=O)N[C@@H](CC(=O)O)C(=O)N[C@@H](CC(N)=O)C(=O)N[C@H](C(=O)N[C@@H](C)C(=O)N1CCC[C@H]1C(=O)N[C@@H](CCCNC(=N)N)C(=O)N[C@H](C(=O)N[C@@H](CCCCN)C(=O)N[C@H](C(=O)NCC(=O)N[C@@H](CO)C(=O)N[C@@H](CC(N)=O)C(=O)NCC(=O)N[C@@H](Cc1ccc(O)cc1)C(N)=O)C(C)C)[C@@H](C)O)C(C)C)[C@@H](C)O` [compound 34] (H-KCNTATCTVQRLAHQIYQFTDKDKDNVAPRTKVGSNGY-NH2; disulfide 2-7; N-terminus assumed), the EC50 is 0.009 nM.

For the molecule `CC[C@H](C)[C@H](NC(=O)[C@H](CCC(N)=O)NC(=O)[C@H](Cc1ccc(O)cc1)NC(=O)[C@H](C)NC(=O)[C@H](CC(C)C)NC(=O)[C@H](CCCNC(=N)N)NC(=O)[C@H](CCC(N)=O)NC(=O)[C@@H](NC(=O)[C@@H](NC(=O)[C@@H]1CSSC[C@H](NC(=O)[C@H](CCCCN)NC(=O)CC[C@H](NC(=O)CCCCCCCCCCCCCCCCCCC(=O)O)C(=O)O)C(=O)N[C@@H](CC(N)=O)C(=O)N[C@@H]([C@@H](C)O)C(=O)N[C@@H](C)C(=O)N[C@@H]([C@@H](C)O)C(=O)N1)[C@@H](C)O)C(C)C)C(=O)N[C@@H](Cc1ccc(O)cc1)C(=O)N[C@@H](CCC(N)=O)C(=O)N[C@@H](Cc1ccccc1)C(=O)N[C@H](C(=O)N[C@@H](CC(=O)O)C(=O)N[C@@H](CCCCN)C(=O)N[C@@H](CC(=O)O)C(=O)N[C@@H](CCCCN)C(=O)N[C@@H](CC(=O)O)C(=O)N[C@@H](CC(N)=O)C(=O)N[C@H](C(=O)N[C@@H](C)C(=O)N1CCC[C@H]1C(=O)N1CCC[C@H]1C(=O)N[C@H](C(=O)N[C@@H](CC(N)=O)C(=O)N[C@H](C(=O)NCC(=O)N[C@@H](CO)C(=O)N[C@@H](CC(N)=O)C(=O)NCC(=O)N1C[C@H](O)C[C@H]1C(N)=O)C(C)C)[C@@H](C)O)C(C)C)[C@@H](C)O` [compound 47] ({C20 diacid-γGlu}-KCNTATCTVQRLAYQIYQFTDKDKDNVAPPTNVGSNG[Hyp]-NH2; disulfide 2-7), the EC50 is 0.011 nM.

Turning to `CC[C@H](C)[C@H](NC(=O)[C@H](CCC(N)=O)NC(=O)[C@H](Cc1c[nH]cn1)NC(=O)[C@H](C)NC(=O)[C@H](CC(C)C)NC(=O)[C@H](CCCNC(=N)N)NC(=O)[C@H](CCC(N)=O)NC(=O)[C@@H](NC(=O)[C@@H](NC(=O)[C@@H]1CSSC[C@H](NC(=O)[C@H](CCCCN)NC(=O)CC[C@H](NC(=O)CCCCCCCCCCCCCCCCCCC(=O)O)C(=O)O)C(=O)N[C@@H](CC(N)=O)C(=O)N[C@@H]([C@@H](C)O)C(=O)N[C@@H](C)C(=O)N[C@@H]([C@@H](C)O)C(=O)N1)[C@@H](C)O)C(C)C)C(=O)N[C@@H](Cc1ccc(O)cc1)C(=O)N[C@@H](CCC(N)=O)C(=O)N[C@@H](Cc1ccc(O)cc1)C(=O)N[C@H](C(=O)N[C@@H](CC(=O)O)C(=O)N[C@@H](CCCCN)C(=O)N[C@@H](CC(=O)O)C(=O)N[C@@H](CCCCN)C(=O)N[C@@H](CC(=O)O)C(=O)N[C@@H](CC(N)=O)C(=O)N[C@H](C(=O)N[C@@H](C)C(=O)N1CCC[C@H]1C(=O)N1CCC[C@H]1C(=O)N[C@H](C(=O)N[C@@H](CC(N)=O)C(=O)N[C@H](C(=O)NCC(=O)N[C@@H](CO)C(=O)N[C@@H](CC(N)=O)C(=O)NCC(=O)N1C[C@H](O)C[C@H]1C(N)=O)C(C)C)[C@@H](C)O)C(C)C)[C@@H](C)O` [compound 48] ({C20 diacid-γGlu}-KCNTATCTVQRLAHQIYQYTDKDKDNVAPPTNVGSNG[Hyp]-NH2; disulfide 2-7), the concentration giving a half-maximal response (EC50) was found to be 0.011 nM.

`CC(C)C[C@H](NC(=O)[C@H](CCCNC(=N)N)NC(=O)[C@H](CCC(N)=O)NC(=O)[C@@H](NC(=O)[C@@H](NC(=O)[C@@H]1CSSC[C@H](NC(=O)CN)C(=O)N[C@@H](CCCNC(=N)N)C(=O)N[C@@H](Cc2ccccc2)C(=O)NCC(=O)N[C@@H]([C@@H](C)O)C(=O)N1)[C@@H](C)O)C(C)C)C(=O)N[C@@H](C)C(=O)N[C@@H](Cc1c[nH]cn1)C(=O)N[C@@H](Cc1ccccc1)C(=O)N[C@@H](CC(C)C)C(=O)N[C@@H](Cc1ccc(O)cc1)C(=O)N[C@@H](CCC(N)=O)C(=O)N[C@@H](Cc1ccccc1)C(=O)N[C@H](C(=O)N[C@@H](CC(=O)O)C(=O)N[C@@H](CCCCN)C(=O)N[C@@H](CC(=O)O)C(=O)N[C@@H](CCCCN)C(=O)N[C@@H](CC(=O)O)C(=O)N[C@@H](CC(N)=O)C(=O)N[C@H](C(=O)N[C@@H](C)C(=O)N1CCC[C@H]1C(=O)N[C@@H](CCCNC(=N)N)C(=O)N[C@H](C(=O)N[C@@H](CC(N)=O)C(=O)N[C@H](C(=O)NCC(=O)N1CCC[C@H]1C(=O)N[C@@H](CCC(N)=O)C(=O)NCC(=O)N[C@@H](Cc1ccc(O)cc1)C(N)=O)C(C)C)[C@@H](C)O)C(C)C)[C@@H](C)O` [compound 54] (H-GCRFGTCTVQRLAHFLYQFTDKDKDNVAPRTNVGPQGY-NH2; disulfide 2-7; N-terminus assumed): the EC50 is 0.012 nM.

In the case of `CC[C@H](C)[C@H](NC(=O)[C@H](CCC(N)=O)NC(=O)[C@H](Cc1c[nH]cn1)NC(=O)[C@H](C)NC(=O)[C@H](CC(C)C)NC(=O)[C@H](CCCNC(=N)N)NC(=O)[C@H](CCC(=O)O)NC(=O)[C@@H](NC(=O)[C@@H](NC(=O)[C@@H]1CSSC[C@H](NC(=O)[C@H](CCCCN)NC(=O)CC[C@H](NC(=O)CCCCCCCCCCCCCCCCCCC(=O)O)C(=O)O)C(=O)N[C@@H](CC(N)=O)C(=O)N[C@@H]([C@@H](C)O)C(=O)N[C@@H](C)C(=O)N[C@@H]([C@@H](C)O)C(=O)N1)[C@@H](C)O)C(C)C)C(=O)N[C@@H](Cc1ccc(O)cc1)C(=O)N[C@@H](CCC(N)=O)C(=O)N[C@@H](Cc1ccccc1)C(=O)N[C@H](C(=O)N[C@@H](CC(=O)O)C(=O)N[C@@H](CCCCN)C(=O)N[C@@H](CC(=O)O)C(=O)N[C@@H](CCCCN)C(=O)N[C@@H](CC(=O)O)C(=O)N[C@@H](CC(N)=O)C(=O)N[C@H](C(=O)N[C@@H](C)C(=O)N1CCC[C@H]1C(=O)N1CCC[C@H]1C(=O)N[C@H](C(=O)N[C@@H](CC(N)=O)C(=O)N[C@H](C(=O)NCC(=O)N[C@@H](CO)C(=O)N[C@@H](CC(N)=O)C(=O)NCC(=O)N1C[C@H](O)C[C@H]1C(N)=O)C(C)C)[C@@H](C)O)C(C)C)[C@@H](C)O` [compound 55] ({C20 diacid-γGlu}-KCNTATCTVERLAHQIYQFTDKDKDNVAPPTNVGSNG[Hyp]-NH2; disulfide 2-7), the EC50 is 0.012 nM.
